Measured values reported in patent US4367232A, “Piperidine derivatives” (Fordonal, S.A., priority 1976, dated 1983).

Legend:
Type in all cases: in vivo
[1] = tested on: food intake (spaghetti); assay: Anorexia: inhibition of food intake (spaghetti) in screening test in the mouse; conditions: 10 mg kg^-1 p.os.
Procedure: (§1) Standard pharmaceutical tests have been run with mice and rats using compounds of this invention. The instant compounds have been compared with Clebopride hydrochloride, i.e., N-(1-benzylpiperid-4-yl)-2-methoxy-4-amino-5-chlorobenzamide hydrochloride, which is disclosed in co-pending U.S. patent application Ser. No. 558,908 filed Mar. 17, 1975, incorporated herein by reference.
^(c) Percentage inhibition of food intake (spaghetti) in screening
test at 10 mg kg^-1 p.os. in the mouse.

[2] = tested on: apomorphineinduced gnawing behaviour; assay: Inhibition of apomorphine-induced gnawing behaviour in the rat; conditions: oral, approximate ED50, read-out: Anti-apomorphine: approximate oral ED50 value for inhibition of apomorphineinduced gnawing behaviour
Excerpt: as §1
^(b) Approximate oral ED50 value for inhibition of
apomorphineinduced gnawing behaviour in the rat.

[3] = tested on: stomach emptying; assay: Stomach emptying in the rat; conditions: 0.3, 1.0 or 3.0 mg kg^-1 i.p.
Excerpt: as §1
^(d) Active at 0.3 (+++), 1.0 (++) or 3.0 (+) mg kg^-1 i.p. in
causing significant stomach emptying in the rat.

## CCN(C(=O)c1cc(Cl)c(N)cc1OC)C1CCN(Cc2ccccc2)CC1.Cl [R3'=H; R7'=C2H5, N-ethyl-N-(1-benzylpiperid-4-yl)-2-methoxy-4-amino-5-chlorobenzamide hydrochloride]
[1]
  Anorexia: percentage inhibition of food intake (spaghetti): 0%
[2]
  ED50: ~300 mg/kg

## COc1cc(N)c(Cl)cc1C(=O)N(C)C1CCN(C(C)c2ccccc2)CC1 (stereo not shown) [R3'=CH3; R7'=CH3, N-methyl-N-[1-(1-phenylethyl)piperid-4-yl]-2-methoxy-4-amino-5-chlorobenzamide]
[1]
  Anorexia: percentage inhibition of food intake (spaghetti): 0%
[2]
  ED50: > 300 mg/kg
[3]
  Stomach emptying: 0

## COc1cc(N)c(Cl)cc1C(=O)N(C)C1CCN(Cc2ccccc2)CC1.Cl [R3'=H; R7'=CH3, N-methyl-N-(1-benzylpiperid-4-yl)-2-methoxy-4-amino-5-chlorobenzamide hydrochloride]
[1]
  Anorexia: percentage inhibition of food intake (spaghetti): 0%
[2]
  ED50: > 300 mg/kg

## COc1cc(N)c(Cl)cc1C(=O)NC1CC(C)N(Cc2ccccc2)C(C)C1 (stereo not shown) [R5'=2-Me; R6'=6-Me; R7'=H, N-(1-benzyl-2,6-dimethylpiperid-4-yl)-2-methoxy-4-amino-5-chlorobenzamide]
[1]
  Anorexia: percentage inhibition of food intake (spaghetti): 89%
[2]
  ED50: ~100 mg/kg

## COc1cc(N)c(Cl)cc1C(=O)NC1CCN(Cc2ccccc2)CC1C (stereo not shown) [R5'=3-Me; R7'=H, N-(1-benzyl-3-methylpiperid-4-yl)-2-methoxy-4-amino-5-chlorobenzamide]
[1]
  Anorexia: percentage inhibition of food intake (spaghetti): 34%
[2]
  ED50: 58 mg/kg

## COc1cc(N)c(Cl)cc1C(=O)NC1CCN(Cc2ccccc2)CC1.Cl [Clebopride hydrochloride, N-(1-benzylpiperid-4-yl)-2-methoxy-4-amino-5-chlorobenzamide hydrochloride, reference compound]
[1]
  Anorexia: percentage inhibition of food intake (spaghetti): 84%
[2]
  ED50: 2.5 mg/kg
